Target: T1, CobNST (Rhodobacter capsulatus, UniProt D5AV09)
T1 construct: gene cobN; recombinant from E. coli BL21(DE3) pLysS; N-terminal 6xHis-tag and thrombin site on CobN (pET14b) and CobS (pET3a), CobT untagged, CobST copurified; 13 subunits; with Aerobic cobaltochelatase subunit CobS; Aerobic cobaltochelatase subunit CobT
T1 sequence (D5AV09 1-1085): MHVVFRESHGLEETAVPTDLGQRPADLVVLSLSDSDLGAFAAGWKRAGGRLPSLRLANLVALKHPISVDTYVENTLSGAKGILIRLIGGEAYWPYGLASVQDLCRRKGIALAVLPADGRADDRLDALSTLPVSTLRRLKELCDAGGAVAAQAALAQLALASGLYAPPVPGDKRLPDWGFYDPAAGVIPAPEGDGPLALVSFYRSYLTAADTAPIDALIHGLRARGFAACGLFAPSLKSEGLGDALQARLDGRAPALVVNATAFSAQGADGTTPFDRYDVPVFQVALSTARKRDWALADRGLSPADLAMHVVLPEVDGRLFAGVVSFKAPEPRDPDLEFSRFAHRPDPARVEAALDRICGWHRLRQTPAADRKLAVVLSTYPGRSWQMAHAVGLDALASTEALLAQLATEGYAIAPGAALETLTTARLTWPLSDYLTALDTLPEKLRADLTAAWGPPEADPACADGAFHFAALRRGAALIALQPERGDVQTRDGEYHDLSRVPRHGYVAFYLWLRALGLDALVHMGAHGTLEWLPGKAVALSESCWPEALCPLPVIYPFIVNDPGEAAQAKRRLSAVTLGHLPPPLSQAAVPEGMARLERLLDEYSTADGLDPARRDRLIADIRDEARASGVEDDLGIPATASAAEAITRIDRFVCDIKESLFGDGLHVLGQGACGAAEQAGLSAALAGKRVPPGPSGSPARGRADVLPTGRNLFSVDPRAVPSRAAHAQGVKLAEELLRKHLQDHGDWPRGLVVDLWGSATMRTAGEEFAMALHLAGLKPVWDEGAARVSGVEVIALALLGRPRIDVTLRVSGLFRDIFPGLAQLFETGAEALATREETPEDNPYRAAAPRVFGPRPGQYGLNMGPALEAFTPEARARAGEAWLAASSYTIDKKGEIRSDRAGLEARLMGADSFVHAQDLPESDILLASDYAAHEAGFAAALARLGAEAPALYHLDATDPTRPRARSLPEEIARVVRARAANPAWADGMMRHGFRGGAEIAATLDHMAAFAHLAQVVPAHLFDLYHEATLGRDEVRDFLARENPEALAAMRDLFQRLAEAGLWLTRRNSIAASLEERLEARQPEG
T1 sequence (D5AQ14 1-324 partner): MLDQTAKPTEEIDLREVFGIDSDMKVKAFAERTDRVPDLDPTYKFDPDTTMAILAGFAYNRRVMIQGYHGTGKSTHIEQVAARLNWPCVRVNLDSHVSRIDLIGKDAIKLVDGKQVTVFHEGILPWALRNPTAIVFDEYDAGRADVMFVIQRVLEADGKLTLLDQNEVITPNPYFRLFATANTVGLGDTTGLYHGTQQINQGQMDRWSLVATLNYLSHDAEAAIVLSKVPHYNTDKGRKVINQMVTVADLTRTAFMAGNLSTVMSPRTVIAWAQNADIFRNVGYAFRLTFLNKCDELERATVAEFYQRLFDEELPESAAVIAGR
T1 sequence (D5AQ13 1-624 partner): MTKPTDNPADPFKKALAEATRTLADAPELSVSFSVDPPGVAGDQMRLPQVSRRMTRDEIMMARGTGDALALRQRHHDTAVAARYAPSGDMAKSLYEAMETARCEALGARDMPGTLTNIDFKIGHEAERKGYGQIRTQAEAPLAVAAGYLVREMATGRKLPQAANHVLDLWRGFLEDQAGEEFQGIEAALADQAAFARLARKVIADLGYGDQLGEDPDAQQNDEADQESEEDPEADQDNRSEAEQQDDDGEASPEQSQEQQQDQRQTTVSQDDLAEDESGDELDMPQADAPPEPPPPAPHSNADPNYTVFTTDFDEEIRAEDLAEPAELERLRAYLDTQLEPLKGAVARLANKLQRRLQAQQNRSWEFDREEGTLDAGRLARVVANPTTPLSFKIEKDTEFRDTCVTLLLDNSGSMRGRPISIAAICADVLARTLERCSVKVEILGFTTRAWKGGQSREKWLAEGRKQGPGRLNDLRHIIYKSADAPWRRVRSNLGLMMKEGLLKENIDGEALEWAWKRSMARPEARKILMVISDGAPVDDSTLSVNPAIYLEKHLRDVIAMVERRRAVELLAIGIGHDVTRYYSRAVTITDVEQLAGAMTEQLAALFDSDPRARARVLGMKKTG
Test: UV-visible absorbance at […] nm, Co(II) chelation
Format: biochemical
Conditions: 10 uM HBAD, 100 uM total Co(II), 10 mM MgCl2, 5 mM ATP, 50 mM Hepes pH 7.0, 100 mM NaCl, 20-25 C, anaerobic

C/C1=C2N=C(/C=C3\N/C(=C(/C)C4=N[C@@](C)([C@@H]5N=C1[C@](C)(CCC(=O)O)[C@H]5CC(=O)O)[C@@](C)(CC(N)=O)[C@@H]4CCC(=O)O)[C@@](C)(CC(N)=O)[C@@H]3CCC(=O)O)C(C)(C)[C@@H]/2CCC(=O)O [HBAD, hydrogenobyrinic acid a,c-diamide]
UV-visible absorbance at 330 nm, Co(II) chelation: Metalation of HBAD to form cobyrinic acid a,c-diamide (CBAD) was followed by changes in the UV–visible absorbance

— publication PMC10206600, “Two Distinct Thermodynamic Gradients for Cellular Metalation of Vitamin B12” (JACS Au, 2023)
